# Source: patent US5229373A, “Use of exogenous gangliosides as a protective factor against toxicity by antitumor drug vincristine” (Fidia S.p.A., priority 1986, dated 1993)
# Where two headings read alike, the source gives them in different places.
# Tests used:
# mouse = experiment: Effect of gangliosides on acute Vincristine toxicity (acute lethality, single i.v. dose); assay type: in vivo; details: Vincristine 3.0 mg/kg e.v. alone
# Procedure: The mice were subdivided into groups of not more than 8 in standard cages. Food and water were provided ad lib. The animals were housed in rooms under strictly controlled conditions.
# 1 mg of Vincristine was diluted to obtain the concentration necessary to inject 0.1 ml/10 g. body weight.
# A solution of gangliosides was prepared by addition of sterile distilled water in a quantity sufficient to obtain a final concentration of 200 mg/kg in a volume of 0.2 ml. This dose was administrated to mice weighing about 20g.
# [1] = Effect of ganglioside treatment on chronic Vincristine toxicity (lethality after sub-chronic pre-treatment or post-treatment); assay type: in vivo, mouse; details: mouse, in vivo, iv, Table 4, read-out: Mortality rate, %
# Procedure: (§1) Male mice CD-1 (ICR) BR (Charles River, Italy) weighing 25-30 g were used for the whole experiment. The animals were housed in groups of 10 per cage and fed with standard laboratory chow and tap water ad libitum. The animals were housed at constant room temperature (21°±1° C.) and relative humidity (60%) with controlled cycles of light/dark (light from 8.00 a.m. to 8.00 p.m.).
# (§2) Vincristine sulphate (Lilly) was dissolved in saline and injected i.v. in a dose volume of 10 ml/kg, whereas the gangliosides were solubilized in a phosphate buffer (0.01M; pH 7.5) containing 0.8% of NaCl and administered i.m. at a dose volume of 5 ml/kg.
# (§3) The ganglioside mixture (or vehicle) was administered i.m. daily for 5 consecutive days at different doses (50, 100 and 200 mg/kg) and Vincristine was injected i.v. 5 hours after the last treatment with gangliosides (or vehicle) in doses of 2.4 and 2.6 mg/kg.
# (§4) The ganglioside mixture (or vehicle) was administered i.m. in doses of 200 mg/kg 5 hours before i.v. treatment with Vincristine for 5 consecutive days
# (§5) The doses of Vincristine were of 2.2, 2.4 and 2.6 mg/kg.
# (§6) The mortality rate was estimated by the number of animals that died within the first 14 days of Vincristine treatment.
# (§7) The statistical significance between mortality rates was assessed by means of Fisher's exact probability test.
# (§8) The results of the tests are reported in Tables 3 and 4 and graphed in FIG. 1. On the basis of the mortality rate curve after administration of Vincristine, doses between 2 and 3 mg/kg were chosen for the investigation with gangliosides. The first experiment compared the effects of ganglioside treatment before and after Vincristine injection.
# (§9) In the case of post-treatment, a single administration of gangliosides was given in order to exclude the possibility that the greater efficacy of pre-treatment with gangliosides in reducing Vincristine toxicity, might only be due to the last ganglioside injection.
# Male mice CD-1 (ICR) BR = experiment: as above; assay type: in vivo, mouse; details: for Mortality rate: Table 3; for Mortality rate, No.: Table 4
# Procedure: as §1, §2, §3, §4, §5, §6, §7, §8, §9
# sarcoma S180 = experiment: Antitumoral effect of Vincristine with and without CRONASSIAL, sarcoma S180; assay type: in vivo, mouse; details: S180, host SN; VCR 0,5 mg/kg i.p. days 1-6
# Procedure: Male Swiss Schneider mice weighing 27 g. were used for experiments on sarcoma S180.
# This tumor has been transplanted into the same strain of mouse in this laboratory for over 10 years. The transplant was carried out by s.c.inoculation of 0.1 ml of a tumoral homogenate obtained by finely mincing viable tumoral tissue, passed repeatedly through a 26 gauge needle into a sterile Petri dish. 0.1 ml of Penicillin (20,000 u/ml) and streptomycin (20,000 u/ml) were added to the solution. 5 mg of Neomycin were also added.
# (§10) A standard vial containing 1 mg of Vincristine was used. It was prepared with a suitable volume of diluting solution to give the final concentration required for injection into 0.1 ml/10 g. of body weight.
# (§11) A solution of this substance, which is a mixture of four gangliosides, was prepared by adding a volume of sterile distilled water suffi- cient to give a concentration of 200 mg/kg in a volume of 0.2 ml. This dose is administered to mice weighing approximately 20 g.
# melanoma B16 = experiment: Antitumoral effect of Vincristine with and without CRONASSIAL, melanoma B16; assay type: in vivo, mouse; details: B16, host C57B1; VCR 0,5 mg/kg i.p. days 1-4, 7-11
# Procedure: Female C57 B1 mice weighing 20 g. were used for experiments on melanoma B16.
# This tumor was prepared by inoculation in the same way as that used for sarcoma S180.
# as §10, §11
# leukemia L1210 = experiment: Antitumoral effect of Vincristine with and without CRONASSIAL, leukemia L1210; assay type: in vivo, mouse
# Procedure: Male BDF1 mice weighing 30 g. were used for experiments on leukemia L1210.
# Spleens were removed from the animals 7 days after inoculation of L1210 cells and were then finely minced with isotonic saline 1:100. 0.1 ml of this spleen and leukemia L1210 cell suspension was then injected s.c. into the flank of each BDF1 mouse.
# as §10, §11
# VCR-induced neuropathy = details: electrophysiology, studies in man; cited from earlier work
# [2] = test system: 3T3, neuroblastoma, glioma; details: exogenous addition; cited from earlier work
# [3] = subchronic vehicle + VCR 2.4 mg/kg i.v.
# [4] = subchronic vehicle + VCR 2.6 mg/kg i.v.
Compound,No. Survivors at 30 days (mouse),"mortality at 336 h [1, 3]","mortality at 336 h [1, 4]",Mortality rate (Male mice CD-1 (ICR) BR; vehicle + VCR 2.4 mg/kg i.v.),Mortality rate (Male mice CD-1 (ICR) BR; vehicle + VCR 2.6 mg/kg i.v.),"Mortality rate, No. (Male mice CD-1 (ICR) BR; [3])","Mortality rate, No. (Male mice CD-1 (ICR) BR; [4])",Mean tumor weight (sarcoma S180),Mean tumor weight (melanoma B16),"Mean survival time (leukemia L1210; L1210, host BDF1, VCR 1,0 mg/kg i.p. days 1-3)","average survival time (leukemia L1210; L1210, Vincristine alone)",type of VCR-induced neuropathy (VCR-induced neuropathy),cell growth and contact inhibition [2]
CC[C@]1(O)C[C@H]2CN(CCc3c([nH]c4ccccc34)[C@@](C(=O)OC)(c3cc4c(cc3OC)N(C=O)[C@H]3[C@@](O)(C(=O)OC)[C@H](OC(C)=O)[C@]5(CC)C=CCN6CC[C@]43[C@@H]65)C2)C1 [Vincristine],2/8,38%,60%,7/10,5/10,19/50,30/50,"0,64 g","1,46 g","7,8 gg.",7.8 days,dying-back type,–
II^3 NeuAcGgOse4 Cer [GM1],–,–,–,–,–,–,–,–,–,–,–,–,inhibits cell growth and induces contact inhibition
